According to patent publication US20250059180A1 (DONG WHA PHARM. CO., LTD., priority 2022, published 2025):
Structures can show the parent of a compound that is named as a salt.

Test system: Pfeiffer cells, lymphoma cells having EZH2 mutation (A677G)
Assay: Proliferation inhibition of cells of hematologic malignancies (CCK-8, 11 days)
Assay type: cell-based
Conditions: 11 days culture, read-out: Cell proliferation inhibitory effect (IC50)
How it was run: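 Pfeiffer lymphoma cells (EZH2 A677G) in RPMI1640 with 10% FBS were seeded at 10,000 cells/well and exposed to test material for 11 days, with compound replaced every 3–4 days. Viability was read by CCK-8 absorbance at 450 nm, and IC50 was derived by non-linear regression curve fitting.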

With `CCN(C)c1ccc(-c2cc(C(=O)NCc3c(SC)cc(C)[nH]c3=O)c(C)c3c2OC(C)(C2CCN(CC(F)(F)F)CC2)O3)cn1` (stereo not shown) [Compound 87, 7-(6-(ethyl(methyl)amino)pyridin-3-yl)-2,4-dimethyl-N-((6-methyl-4-(methylthio)-2-oxo-1,2-dihydropyridin-3-yl)methyl)-2-(1-(2,2,2-trifluoroethyl)piperidin-4-vi)benzo[d][1,3]dioxole-5-carboxamide] the IC50 was 10 to 100 nM.

Same assay, conditions: Homo sapiens, Pfeiffer, 264 h, 11 days culture, read-out: Cell proliferation inhibitory effect (IC50)

`CCN1CCN(c2ncc(-c3cc(C(=O)NCc4c(SC)cc(C)[nH]c4=O)c(C)c4c3OC(C)(C3CCN(CC(F)(F)F)CC3)O4)cn2)CC1` (stereo not shown) [Compound 75, 7-(2-(4-ethylpiperazin-1-yl)pyrimidin-5-yl)-2,4-dimethyl-N-((6-methyl-4-(methylthio)-2-oxo-1,2-dihydropyridin-3-yl)methyl)-2-(1-(2,2,2-trifluoroethyl)piperidin-4-yl)benzo[d][1,3]dioxole-5-carboxamide] and `CSc1cc(C)[nH]c(=O)c1CNC(=O)c1cc(-c2cnc(N3CCSCC3)nc2)c2c(c1C)OC(C)(C1CCN(CC(F)(F)F)CC1)O2` (stereo not shown) [Compound 92, 2,4-dimethyl-N-((6-methyl-4-(methylthio)-2-oxo-1,2-dihydropyridin-3-yl)methyl)-7-(2-thiomorpholinopyrimidin-5-yl)-2-(1-(2,2,2-trifluoroethyl)piperidin-4-yl)benzo[d][1,3]dioxole-5-carboxamide] cannot be ordered by IC50: ≤ 10 nM for the first, 10 to 100 nM for the second.

Going from `CCN(C)c1ncc(-c2cc(C(=O)NCc3c(SC)cc(C)[nH]c3=O)c(C)c3c2OC(C)(C2CCN(CC(F)(F)F)CC2)O3)cn1` (stereo not shown) [Compound 78] to `CCCCN(C)c1ncc(-c2cc(C(=O)NCc3c(SC)cc(C)[nH]c3=O)c(C)c3c2OC(C)(C2CCN(CC(F)(F)F)CC2)O3)cn1` (stereo not shown) [Compound 99], the IC50 rises from ≤ 10 nM to ≥ 100 nM. The first is the more potent here.

`CSc1cc(C)[nH]c(=O)c1CNC(=O)c1cc(-c2ccc(N3CCCCC3)cc2)c2c(c1C)OC(C)(C1CCN(CC(F)(F)F)CC1)O2` (stereo not shown) [Compound 90, 2,4-dimethyl-N-((6-methyl-4-(methylthio)-2-oxo-1,2-dihydropyridin-3-yl)methyl)-7-(4-(piperidin-1-yl)phenyl)-2-(1-(2,2,2-trifluoroethyl)piperidin-4-yl)benzo[d][1,3]dioxole-5-carboxamide] and `CSc1cc(C)[nH]c(=O)c1CNC(=O)c1cc(-c2ccc(N3CCCCC3)nc2)c2c(c1C)OC(C)(C1CCN(CC(F)(F)F)CC1)O2` (stereo not shown) [Compound 91, 2,4-dimethyl-N-((6-methyl-4-(methylthio)-2-oxo-1,2-dihydropyridin-3-yl)methyl)-7-(6-(piperidin-1-yl)pyridin-3-yl)-2-(1-(2,2,2-trifluoroethyl)piperidin-4-yl)benzo[d][1,3]dioxole-5-carboxamide] cannot be ordered by IC50: 10 to 100 nM for the first, ≥ 100 nM for the second.

`CSc1cc(C)[nH]c(=O)c1CNC(=O)c1cc(-c2ccc3c(c2)OC(F)(F)O3)c2c(c1C)OC(C)(C1CCN(CC(F)(F)F)CC1)O2` (stereo not shown) [Compound 93, 2′,2′-difluoro-2,7-dimethyl-N-((6-methyl-4-(methylthio)-2-oxo-1,2-dihydropyridin-3-yl)methyl)-2-(1-(2,2,2-trifluoroethyl)piperidin-4-yl)-[4,5′-bibenzo[d][1,3]dioxol]-6-carboxamide] and `CSc1cc(C)[nH]c(=O)c1CNC(=O)c1cc(-c2ccc3c(c2)OCO3)c2c(c1C)OC(C)(C1CCN(CC(F)(F)F)CC1)O2` (stereo not shown) [Compound 94, 2,7-dimethyl-N-((6-methyl-4-(methylthio)-2-oxo-1,2-dihydropyridin-3-yl)methyl)-2-(1-(2,2,2-trifluoroethyl)piperidin-4-yl)-[4,5′-bibenzo[d][1,3]dioxol]-6-carboxamide] cannot be ordered by IC50: ≥ 100 nM for the first, 10 to 100 nM for the second.

`CSc1cc(C)[nH]c(=O)c1CNC(=O)c1cc(-c2ccc3c(c2)OCO3)c2c(c1C)OC(C)(C1CCN(CC(F)F)CC1)O2` (stereo not shown) [Compound 95, 2-(1-(2,2-difluoroethyl)piperidin-4-yl)-2,7-dimethyl-N-((6-methyl-4-(methylthio)-2-oxo-1,2-dihydropyridin-3-yl)methyl)-[4,5′-bibenzo[d][1,3]dioxol]-6-carboxamide] and `CSc1cc(C)[nH]c(=O)c1CNC(=O)c1cc(-c2ccc3occc3c2)c2c(c1C)OC(C)(C1CCN(CC(F)F)CC1)O2` (stereo not shown) [Compound 97, 7-(benzofuran-5-yl)-2-(1-(2,2-difluoroethyl)piperidin-4-yl)-2,4-dimethyl-N-((6-methyl-4-(methylthio)-2-oxo-1,2-dihydropyridin-3-yl)methyl)benzo[d][1,3]dioxole-5-carboxamide] cannot be ordered by IC50: 10 to 100 nM for the first, ≥ 100 nM for the second.

`CSc1cc(C)[nH]c(=O)c1CNC(=O)c1cc(-c2ccc3occc3c2)c2c(c1C)OC(C)(C1CCN(CC(F)(F)F)CC1)O2` (stereo not shown) [Compound 96, 7-(benzofuran-5-yl)-2,4-dimethyl-N-((6-methyl-4-(methylthio)-2-oxo-1,2-dihydropyridin-3-yl)methyl)-2-(1-(2,2,2-trifluoroethyl)piperidin-4-yl)benzo[d][1,3]dioxole-5-carboxamide] and `CCCCN(C)c1ccc(-c2cc(C(=O)NCc3c(SC)cc(C)[nH]c3=O)c(C)c3c2OC(C)(C2CCN(CC(F)(F)F)CC2)O3)cn1` (stereo not shown) [Compound 98, 7-(6-(butyl(methyl)amino)pyridin-3-yl)-2,4-dimethyl-N-((6-methyl-4-(methylthio)-2-oxo-1,2-dihydropyridin-3-yl)methyl)-2-(1-(2,2,2-trifluoroethyl)piperidin-4-yl)benzo[d][1,3]dioxole-5-carboxamide] cannot be ordered by IC50: ≥ 100 nM for the first, ≥ 100 nM for the second.

`CSc1cc(C)[nH]c(=O)c1CNC(=O)c1cc(-c2ccc(N3C[C@@H](C)O[C@@H](C)C3)nc2)c2c(c1C)OC(C)([C@H]1CC[C@H](N)CC1)O2` (stereo partly drawn) [Compound 100, 2-(trans-4-aminocyclohexyl)-7-(6-((2S,6R)-2,6-dimethylmorpholino)pyridin-3-yl)-2,4-dimethyl-N-((6-methyl-4-(methylthio)-2-oxo-1,2-dihydropyridin-3-yl)methyl)benzo[d][1,3]dioxole-5-carboxamide hydrochloride salt] and `CCN(C)[C@H]1CC[C@H](C2(C)Oc3c(-c4ccc(N5C[C@@H](C)O[C@@H](C)C5)nc4)cc(C(=O)NCc4c(SC)cc(C)[nH]c4=O)c(C)c3O2)CC1` (stereo partly drawn) [Compound 111, 7-(6-((2S,6R)-2,6-dimethylmorpholino)pyridin-3-yl)-2-(trans-4-(ethyl(methyl)amino)cyclohexyl)-2,4-dimethyl-N-((6-methyl-4-(methylthio)-2-oxo-1,2-dihydropyridin-3-yl)methyl)benzo[d][1,3]dioxole-5-carboxamide] cannot be ordered by IC50: ≤ 10 nM for the first, ≤ 10 nM for the second.

`CSc1cc(C)[nH]c(=O)c1CNC(=O)c1cc(-c2ccc(N3C[C@@H](C)O[C@@H](C)C3)nc2)c2c(c1C)OC(C)([C@H]1CC[C@H](N3CC(O)C3)CC1)O2` (stereo partly drawn) [Compound 101, 7-(6-((2S,6R)-2,6-dimethylmorpholino)pyridin-3-yl)-2-(trans-4-(3-hydroxyazetidin-1-yl)cyclohexyl)-2,4-dimethyl-N-((6-methyl-4-(methylthio)-2-oxo-1,2-dihydropyridin-3-yl)methyl)benzo[d][1,3]dioxole-5-carboxamide] and `COC1CN([C@H]2CC[C@H](C3(C)Oc4c(-c5ccc(N6C[C@@H](C)O[C@@H](C)C6)nc5)cc(C(=O)NCc5c(SC)cc(C)[nH]c5=O)c(C)c4O3)CC2)C1` (stereo partly drawn) [Compound 106, 7-(6-((2S,6R)-2,6-dimethylmorpholino)pyridin-3-yl)-2-(trans-4-(3-methoxyazetidin-1-yl)cyclohexyl)-2,4-dimethyl-N-((6-methyl-4-(methylthio)-2-oxo-1,2-dihydropyridin-3-yl)methyl)benzo[d][1,3]dioxole-5-carboxamide] cannot be ordered by IC50: ≤ 10 nM for the first, ≤ 10 nM for the second.

`CSc1cc(C)[nH]c(=O)c1CNC(=O)c1cc(-c2ccc(N3C[C@@H](C)O[C@@H](C)C3)nc2)c2c(c1C)OC(C)([C@H]1CC[C@H](N3CC(OCC(F)(F)F)C3)CC1)O2` (stereo partly shown) [Compound 102] and `CSc1cc(C)[nH]c(=O)c1CNC(=O)c1cc(-c2ccc(N3C[C@@H](C)O[C@@H](C)C3)nc2)c2c(c1C)OC(C)([C@H]1CC[C@H](N3CC(OCC(F)F)C3)CC1)O2` (stereo partly drawn) [Compound 103, 2-(trans-4-(3-(2,2-difluoroethoxy)azetidin-1-yl)cyclohexyl)-7-(6-((2S,6R)-2,6-dimethylmorpholino)pyridin-3-yl)-2,4-dimethyl-N-((6-methyl-4-(methylthio)-2-oxo-1,2-dihydropyridin-3-yl)methyl)benzo[d][1,3]dioxole-5-carboxamide] cannot be ordered by IC50: 10 to 100 nM for the first, ≤ 10 nM for the second.

First: CSc1cc(C)[nH]c(=O)c1CNC(=O)c1cc(-c2ccc(N3C[C@@H](C)O[C@@H](C)C3)nc2)c2c(c1C)OC(C)([C@H]1CC[C@H](N3CC(OC(C)C)C3)CC1)O2 (stereo partly drawn) [Compound 105, 7-(6-((2S,6R)-2,6-dimethylmorpholino)pyridin-3-yl)-2-(trans-4-(3-isopropoxyazetidin-1-yl)cyclohexyl)-2,4-dimethyl-N-((6-methyl-4-(methylthio)-2-oxo-1,2-dihydropyridin-3-yl)methyl)benzo[d][1,3]dioxole-5-carboxamide]
Second: CSc1cc(C)[nH]c(=O)c1CNC(=O)c1cc(-c2ccc(N3C[C@@H](C)O[C@@H](C)C3)nc2)c2c(c1C)OC(C)([C@H]1CC[C@H](N(C)C(C)C)CC1)O2 (stereo partly drawn) [Compound 110, 7-(6-((2S,6R)-2,6-dimethylmorpholino)pyridin-3-yl)-2-(trans-4-(isopropyl(methyl)amino)cyclohexyl)-2,4-dimethyl-N-((6-methyl-4-(methylthio)-2-oxo-1,2-dihydropyridin-3-yl)methyl)benzo[d][1,3]dioxole-5-carboxamide]
The IC50 of the first is higher: ≥ 100 nM for the first, ≤ 10 nM for the second. The second is the more potent here.

`CSc1cc(C)[nH]c(=O)c1CNC(=O)c1cc(-c2ccc(N3C[C@@H](C)O[C@@H](C)C3)nc2)c2c(c1C)OC(C)([C@H]1CC[C@H](N(C)CC(F)F)CC1)O2` (stereo partly shown) [Compound 109] was tested, and the IC50 was ≤ 10 nM.
